pIC50: −log10 of the molar value. Converted amounts (≈) assume the structure as drawn. The source made the active and inactive calls. The rule behind the calls is not given here.
Columns and labels:
Streptococcus mutans [1] = test: Bactericidal activity against Streptococcus mutans UA159 assessed as reduction in bacterial growth at 100 uM after 24 hrs; assay type: functional, organism-based
[2] = Solubility of compound in water; assay type: physicochemical
Streptococcus mutans [3] = test: Antibiofilm activity against Streptococcus mutans UA159 assessed as inhibition of biofilm formation by serial dilution method; assay type: functional, organism-based; conditions: for pIC50: Streptococcus mutans, UA159, read-out: IC50

With `CC(C)(C)OC(=O)NCc1ccccc1NC(=O)c1ccc(-c2ccccc2)cc1` the Activity (Streptococcus mutans [1]) was “inactive”, the solubility ([2]; water, read-out: solubility) was under 5 µg/mL and the pIC50 (Streptococcus mutans [3]) was 3.91.
For `COC(=O)c1ccccc1NC(=O)c1cccc2ccccc12`, the Activity (Streptococcus mutans [1]) was “inactive”, the solubility ([2]; water, read-out: solubility) was 5 µg/mL (≈ 16.4 µM) and the pIC50 (Streptococcus mutans [3]) was under 3.52.
For `COC(=O)c1ccc(NC(=O)c2cc3cc(OC)ccc3[nH]2)cc1`, the Activity (Streptococcus mutans [1]) was “inactive”, the solubility ([2]; buffer) was “Insoluble” and the IC50 (Streptococcus mutans [3]) was “Nd(Insoluble)”.
With `COc1ccc2[nH]c(C(=O)Nc3cccc(C(N)=O)c3)cc2c1` the Activity (Streptococcus mutans [1]) was “inactive”, the solubility ([2]; water, read-out: solubility) was 5 µg/mL (≈ 16.2 µM) and the pIC50 (Streptococcus mutans [3]) was 4.25.
For `NC(=O)c1ccc(NC(=O)c2cc3cc([N+](=O)[O-])ccc3[nH]2)cc1`, the Activity (Streptococcus mutans [1]) was “inactive”, the solubility ([2]; buffer) was “Insoluble” and the IC50 (Streptococcus mutans [3]) was “Nd(Insoluble)”.
With `NC(=O)c1ccc(NC(=O)c2ccc(-c3ccccc3)cc2)cc1` the Activity (Streptococcus mutans [1]) was “inactive”, the solubility ([2]; water, read-out: solubility) was under 5 µg/mL and the pIC50 (Streptococcus mutans [3]) was under 3.52.
In the case of `CC(C)(C)OC(=O)NCc1ccccc1NC(=O)c1cc2cc([N+](=O)[O-])ccc2[nH]1`, the Activity (Streptococcus mutans [1]) was “inactive”, the solubility ([2]; buffer) was “Insoluble” and the IC50 (Streptococcus mutans [3]) was “Nd(Insoluble)”.
With `COc1ccc2[nH]c(C(=O)Nc3ccccc3CN)cc2c1` the Activity (Streptococcus mutans [1]) was “inactive”, the solubility ([2]; buffer) was “Insoluble” and the IC50 (Streptococcus mutans [3]) was “Nd(Insoluble)”.
For `O=C(Nc1ccccc1)c1ccc2ccccc2n1`, the Activity (Streptococcus mutans [1]) was “inactive”, the solubility ([2]; water, read-out: solubility) was 25 µg/mL (≈ 101 µM) and the pIC50 (Streptococcus mutans [3]) was under 3.52.
In the case of `COC(=O)c1ccc(NC(=O)c2cc3cc([N+](=O)[O-])ccc3[nH]2)cc1`, the Activity (Streptococcus mutans [1]) was “inactive”, the solubility ([2]; buffer) was “Insoluble” and the IC50 (Streptococcus mutans [3]) was “Nd(Insoluble)”.
In the case of `COC(=O)c1ccccc1NC(=O)c1cc2cc([N+](=O)[O-])ccc2[nH]1`, the Activity (Streptococcus mutans [1]) was “inactive”, the solubility ([2]; buffer) was “Insoluble” and the IC50 (Streptococcus mutans [3]) was “Nd(Insoluble)”.
In the case of `CC(C)(C)OC(=O)NCc1ccccc1NC(=O)c1cc2cc([N+](=O)[O-])ccc2o1`, the Activity (Streptococcus mutans [1]) was “inactive”, the solubility ([2]; water, read-out: solubility) was 25 µg/mL (≈ 60.8 µM) and the pIC50 (Streptococcus mutans [3]) was 4.57.
For `NC(=O)c1ccccc1NC(=O)c1cc2cc([N+](=O)[O-])ccc2[nH]1`, the Activity (Streptococcus mutans [1]) was “inactive”, the solubility ([2]; buffer) was “Insoluble” and the IC50 (Streptococcus mutans [3]) was “Nd(Insoluble)”.
With `COC(=O)c1cccc(NC(=O)c2cc3cc([N+](=O)[O-])ccc3o2)c1` the Activity (Streptococcus mutans [1]) was “inactive”, the solubility ([2]; water, read-out: solubility) was 25 µg/mL (≈ 73.5 µM) and the pIC50 (Streptococcus mutans [3]) was 5.57.
In the case of `NC(=O)c1ccccc1NC(=O)c1ccc2ccccc2c1`, the Activity (Streptococcus mutans [1]) was “inactive”, the solubility ([2]; water, read-out: solubility) was 25 µg/mL (≈ 86.1 µM) and the pIC50 (Streptococcus mutans [3]) was 4.08.
With `NC(=O)c1cccc(NC(=O)c2cc3cc([N+](=O)[O-])ccc3o2)c1` the Activity (Streptococcus mutans [1]) was “inactive”, the solubility ([2]; water, read-out: solubility) was 20 µg/mL (≈ 61.5 µM) and the pIC50 (Streptococcus mutans [3]) was 4.41.
In the case of `NC(=O)c1cccc(NC(=O)c2ccc3ccccc3c2)c1`, the Activity (Streptococcus mutans [1]) was “inactive”, the solubility ([2]; water, read-out: solubility) was under 5 µg/mL and the pIC50 (Streptococcus mutans [3]) was 3.62.
With `COC(=O)c1ccccc1NC(=O)c1cc2cc([N+](=O)[O-])ccc2o1` the Activity (Streptococcus mutans [1]) was “inactive”, the solubility ([2]; water, read-out: solubility) was 25 µg/mL (≈ 73.5 µM) and the pIC50 (Streptococcus mutans [3]) was 4.15.
With `NC(=O)c1ccc(NC(=O)c2ccc3ccccc3n2)cc1` the Activity (Streptococcus mutans [1]) was “inactive”, the solubility ([2]; water, read-out: solubility) was 5 µg/mL (≈ 17.2 µM) and the pIC50 (Streptococcus mutans [3]) was 4.26.
For `COc1ccc2[nH]c(C(=O)Nc3ccccc3CNC(=O)OC(C)(C)C)cc2c1`, the Activity (Streptococcus mutans [1]) was “inactive”, the solubility ([2]; buffer) was “Insoluble” and the IC50 (Streptococcus mutans [3]) was “Nd(Insoluble)”.
In the case of `COC(=O)c1cccc(NC(=O)c2ccc(-c3ccccc3)cc2)c1`, the Activity (Streptococcus mutans [1]) was “inactive”, the solubility ([2]; water, read-out: solubility) was under 5 µg/mL and the pIC50 (Streptococcus mutans [3]) was 3.98.
In the case of `COC(=O)c1cccc(NC(=O)c2cc3cc(OC)ccc3[nH]2)c1`, the Activity (Streptococcus mutans [1]) was “inactive”, the solubility ([2]; buffer) was “Insoluble” and the IC50 (Streptococcus mutans [3]) was “Nd(Insoluble)”.
In the case of `CC(C)(C)OC(=O)NCc1ccccc1NC(=O)c1cc2ccccc2s1`, the Activity (Streptococcus mutans [1]) was “inactive”, the solubility ([2]; water, read-out: solubility) was 20 µg/mL (≈ 52.3 µM) and the pIC50 (Streptococcus mutans [3]) was 4.36.
With `COc1ccc2[nH]c(C(=O)Nc3ccccc3)cc2c1` the Activity (Streptococcus mutans [1]) was “inactive”, the solubility ([2]; buffer) was “Insoluble” and the IC50 (Streptococcus mutans [3]) was “Nd(Insoluble)”.
For `O=C(Nc1ccccc1)c1cc2cc([N+](=O)[O-])ccc2[nH]1`, the Activity (Streptococcus mutans [1]) was “inactive”, the solubility ([2]; buffer) was “Insoluble” and the IC50 (Streptococcus mutans [3]) was “Nd(Insoluble)”.
For `NC(=O)c1cccc(NC(=O)c2cc3cc([N+](=O)[O-])ccc3[nH]2)c1`, the Activity (Streptococcus mutans [1]) was “inactive”, the solubility ([2]; buffer) was “Insoluble” and the IC50 (Streptococcus mutans [3]) was “Nd(Insoluble)”.
